Source: patent publication US12152060B2, “Interleukin-2 variants and methods of uses thereof” (Cugene Inc, priority 2018, dated 2024)
Entries after “also recorded” stand apart in the source; their conditions may differ.

What was measured:
[1] = system: STAT5 phosphorylation in CD4+ Treg cells (CD4+/Foxp3+/CD25high); test: STAT5 phosphorylation in CD4+ Treg cells, human PBMC assay by FACS; assay type: cell-based; settings: for window for selective activation of Treg cells over CD4+ Tconv cells (in words): pSTAT5, Treg versus Tconv; for pSTAT5 activity profile compared with benchmark molecules (in words): Treg and CD4+ Tconv cells
Source text: Single amino acid substitutions were introduced to IL-2 at positions corresponding to amino acids interacting with receptor subunit(s) β or γ or By. These substitutions were aimed to reduce IL-2 signaling capacity through the intermediate affinity IL-2Rβγ complex and confer signaling specificity from the high affinity IL-2Rαβγ. IL-2 variants containing single amino acid substitutions were examined for their ability to differentially stimulate STAT5 phosphorylation in CD4 positive Treg and Tconv cells. STAT5 is known to be involved in the downstream signaling cascade upon IL-2 binding to the transmembrane IL-2 receptors. The phosphorylation of STAT5 in defined lymphocyte subpopulations was measured using fresh human peripheral blood mononuclear cells (PBMC) and the forkhead transcription factor FOXP3 was used to identify the Treg population in FACS analysis.
Briefly, human PBMC were isolated by Ficoll-Hypaque centrifugation from the buffy coat of a healthy donor. PBMC were starved in serum-free MACS buffer at 4° C. for 1 hour. 2×10^5 PBMC were then treated with serial dilutions of test compounds for 30 min at 37° C. Cells were fixed and permeabilized with Foxp3/Transcription Factor Staining Buffer Set (EBIO) by incubating with 1× Foxp3 fixation/permeabilization working solution for 30 minutes and washing with 1× permeabilization buffer. Cells were additionally fixed with Cytofix buffer and permeabilized with Perm Buffer III (BD Biosciences) and then washed. After blocking Fc receptors by adding human TruStain™ FcX (1:50 dilution), cells were stained with a mixture of anti-CD25-PE, anti-FOXP3-APC, anti-pSTAT5-FITC, and anti-CD4-PerCP-Cy5.5 antibodies at concentrations recommended by the manufacturer for 45 minutes at room temperature. Cells were collected by centrifugation, washed, resuspended in FACS buffer, and analyzed by flow cytometry. The flow cytometry data was gated into CD4+/Foxp3+/CD25^high and CD4+/Foxp3−/CD25^low groups for the Treg and CD4 conventional T cell subsets, respectively. Data are expressed as a percent of pStat5 positive cells in gated population.

[2] = system: regulatory T cells (CD4+CD25+FoxP3+ T cells), effector T cells and NK cells; test: Treg versus effector T and NK cell proliferation and expansion in mice after a single subcutaneous injection; assay type: in vivo, mouse; settings: 0.3 mg/kg s.c. single dose, C57/BL6 mice; for Treg cell proliferation and expansion (Ki67 positive Treg, % Treg over CD4+ T cells or lymphocytes): days 3, 5, 7
Protocol: IL-2 variant Fc fusion proteins were administered to mice and their ability to preferentially proliferate and expand regulatory T cells (CD4+CD25+FoxP3+ T cells) over effector T cells and NK cells were determined in vivo.
Female C57/BL6 mice (7-week old) were received from Charles River Laboratory and acclimated in house for at least 7 days before the study. Vehicle (PBS), 0.3 mg/kg of each test compounds, or IL-2 benchmark compounds were subcutaneously administered to mice on day 0. Peripheral blood samples were collected into heparin-treated tubes on days 3, 5 and 7 post-treatment. Each group contained 6 mice and baseline blood was collected 2 days prior to the treatment (day-2). After red blood cell lysis, total viable mononuclear blood cells were counted by trypan blue dead cell exclusion method and proceeded to intracellular staining for immune cell phenotype and Ki67 proliferation markers using flow cytometric analysis. Cells were stained separately with two panels of antibodies as listed: 1) anti-mouse Foxp3-FITC, Ki67-PE, anti-mouse CD25-APC and anti-mouse CD4-Percpcy5.5 (1:50 dilution) for CD4+T-regulatory cells (Treg); 2) anti-mouse CD3-FITC, Ki67-PE, anti-mouse CD335-APC and anti-mouse CD8-Percpcy5.5 (1:50 dilution) for CD8+T and NK cells.

[3] = system: STAT5 phosphorylation in CD4+/Foxp3+/CD25+ Treg, CD4+/Foxp3-/CD25+ CD4 effector and CD4+/Foxp3-/CD25- CD4 naive T cell subsets; test: STAT5 phosphorylation in three CD4+ T cell subsets, human PBMC; assay type: cell-based; settings: FIG. 9
Protocol: After human PBMC Cells were treated with serial dilutions of test compounds, fixed and permeabilized, washed, and stained with a mixture of anti-CD25-PE, anti-FOXP3-APC, anti-pSTAT5-FITC, and anti-CD4-PerCP-Cy5.5 antibodies, the flow cytometry analysis was gated into CD4+/Foxp3+/CD25+, CD4+/Foxp3−/CD25+, CD4+/Foxp3−/CD25− groups for the Treg, CD4 effector, and CD4 naive T cell subsets, respectively. Data are expressed as a percent of pSTAT5 positive cells in gated population and illustrated in FIG. 9.

Treg cells in blood = test: Pharmacodynamics study in mice following repeated administration (Q3D); assay type: in vivo, mouse; settings: 0.3 mg/kg s.c. Q3D x3; compared to P-0531 and Benchmark-1
Protocol: Female Balb/C mice (7-week old) were acclimated in house for 5-7 days before the study. Vehicle (PBS), 0.3 mg/kg of P-0511, P-0512, P-0531, or Benchmark-1 compound were subcutaneously administered to mice (n=5/group) on days 0, 3, and 6. On days 3 and 9, three days after the first injection and multiple (3) injections, respectively, peripheral blood was collected. Based on earlier in vivo experiments, Treg cell activation, proliferation, and expansion were expected to peak on day 3, and thus three days post injection was selected for data collection and analysis. Changes in blood lymphocyte activation, proliferation, and expansion were measured by flow cytometry. P-0531 is the S125I equivalent of the wild type IL-2 fusion protein. The Benchmark-1 contains V91K mutation.

[4] = system: delayed-type hypersensitivity (DTH) mouse model; test: KLH-induced delayed-type hypersensitivity (DTH) mouse model, ear thickness; assay type: in vivo
Protocol: The ability of Treg cells induced by IL-2 variants to suppress T cell antigen-driven inflammation in vivo was assessed in a model of delayed-type hypersensitivity (DTH). Female Balb/C mice (7-week old) were acclimated in house for 7 days and randomized into groups. Subcutaneous administration of vehicle (PBS), P-0511 at either 0.1 mg/kg or 0.3 mg/kg was initiated on day-2 and was given either once every 3 days (Q3D) for three injections or once every 5 days (Q5D) for two injections. Mice were then sensitized with a subcutaneous administration of 100 μg keyhole limpet hemocyanin (KLH) in 200 μl saline on day 0. For Q3D dosing, two more subcutaneous injections of PBS or P-0511 (0.1 or 0.3 mg/kg) were administered on days 1 and 4; for Q5D dosing, one additional s.c. injection of PBS, 0.1 or 0.3 mg/kg P-0511 was administered on day 3. Mice received an intradermal challenge of KLH (5 μg in 10 μl saline) in right ear on day 5. Right ear thickness was measured using a caliper on day 5 prior KLH challenge and daily from day 6 to day 8 corresponding to 24 h, 48h, and 72 h post KLH challenge. One group of mice also received 5 mg/kg daily i.p. treatment of dexamethasone from day 5 to day 8 as a positive control.
Kinetics of the DTH response using the change in ear thickness relative to baseline values (Δ ear thickness) at various times after KLH challenge was illustrated in FIG. 23.
In a separate study, dose-dependent response of P-0511 (0.1, 0.3 and 1 mg/kg, Q5D) on suppression of KLH-induced DTH was determined and compared with Benchmark-1 (0.3 mg/kg, Q5D).

P-0531: Fc fusion protein of IL-2 variant S125I, the S125I equivalent of wild type P-0250; SEQ ID NO: 162
window for selective activation of Treg cells over CD4+ Tconv cells (in words) [1]: without altering Treg selectivity

P-0363: Fc fusion protein of IL-2 variant D20T; SEQ ID NO: 72
window for selective activation of Treg cells over CD4+ Tconv cells (in words) [1]: some or significant biased selective window

P-0514: Fc fusion protein of IL-2 variant L19Q/S125I/Q126E; SEQ ID NO: 201
expansion of CD4+ Tconv cells, CD8 T cells or NK cells [2]: No significant expansion
Treg cell proliferation and expansion (Ki67 positive Treg, % Treg over CD4+ T cells or lymphocytes) [2]: stronger in vivo efficacy

P-0449: Fc fusion protein of IL-2 variant L19S/Q126E; SEQ ID NO: 170
pSTAT5 activity profile compared with benchmark molecules (in words) [1]: on par with Benchmark-3

P-0447: Fc fusion protein of IL-2 variant L19H/Q126E; SEQ ID NO: 168
pSTAT5 activity profile compared with benchmark molecules (in words) [1]: on par with Benchmark-3

P-0512: Fc fusion protein of IL-2 variant L19H/S125I/Q126K; SEQ ID NO: 199
Ki67 stimulation on CD8 T cells and NK cells [2]: mild Ki67 stimulation
expansion of CD4+ Tconv cells, CD8 T cells or NK cells [2]: No significant expansion
Treg cell proliferation and expansion (Ki67 positive Treg, % Treg over CD4+ T cells or lymphocytes) [2]: stronger in vivo efficacy
pSTAT5 potency and selectivity in Treg, Teff and naive CD4 T cell subsets (in words) [3]: comparable activity profile to Benchmark-1
Treg cell counts, fold changes relative to PBS and Treg/Tconv ratio (Treg cells in blood): superior capabilities to sustain Treg pool

C[C@@H]1C[C@H]2[C@@H]3CCC4=CC(=O)C=C[C@]4(C)[C@@]3(F)[C@@H](O)C[C@]2(C)[C@@]1(O)C(=O)CO [dexamethasone, reference compound]
inhibition of KLH-induced inflammatory response (ear swelling) ([4]; 5 mg/kg daily i.p., 4 consecutive doses, 72 hours after KLH challenge): ~85%

P-0372: Fc fusion protein of IL-2 variant L19Y; SEQ ID NO: 79
window for selective activation of Treg cells over CD4+ Tconv cells (in words) [1]: modestly improved selective window

Benchmark-3: benchmark Fc-IL-2 variant fusion protein containing N88D; SEQ ID NO: 192 [reference compound]
Ki67 stimulation on CD8 T cells and NK cells [2]: low effects
Treg cell proliferation and expansion (Ki67 positive Treg, % Treg over CD4+ T cells or lymphocytes) [2]: not efficacious

Benchmark-1: benchmark Fc-IL-2 variant fusion protein containing V91K mutation; SEQ ID NO: 191 [reference compound]
Ki67 stimulation on CD8 T cells and NK cells [2]: strong Ki67 stimulation
Treg cell proliferation and expansion (Ki67 positive Treg, % Treg over CD4+ T cells or lymphocytes) [2]: highest potency
inhibition of ear inflammation (KLH-induced DTH), separate study ([4]; 0.3 mg/kg, Q5D): mild inhibition of ear swelling

P-0491: Fc fusion protein of IL-2 variant L19H/S125I; SEQ ID NO: 185
window for selective activation of Treg cells over CD4+ Tconv cells (in words) [1]: without altering Treg selectivity

P-0425: Fc fusion protein of IL-2 variant L19D; SEQ ID NO: 149
window for selective activation of Treg cells over CD4+ Tconv cells (in words) [1]: wide window for selective targeting of Treg subset

P-0448: Fc fusion protein of IL-2 variant L19Q/Q126E; SEQ ID NO: 169
pSTAT5 activity profile compared with benchmark molecules (in words) [1]: on par with Benchmark-3

P-0424: Fc fusion protein of IL-2 variant L19H; SEQ ID NO: 148
window for selective activation of Treg cells over CD4+ Tconv cells (in words) [1]: selective activation of Treg cells over CD4+ Tconv cells

P-0303: Fc fusion protein of IL-2 variant Q126E; SEQ ID NO: 88
window for selective activation of Treg cells over CD4+ Tconv cells (in words) [1]: modestly improved selective window

P-0373: Fc fusion protein of IL-2 variant L19N; SEQ ID NO: 80
window for selective activation of Treg cells over CD4+ Tconv cells (in words) [1]: wide window for selective targeting of Treg subset; also recorded: some or significant biased selective window
